Format in all cases: cell-based
Assay [1] concerns the target T1, GLP-1 receptor (Homo sapiens, UniProt P43220). Put plainly: PathHunter β-arrestin assay, GLP-1 receptor. More on the design: host or cells: PathHunter CHO-K1 GLP1R β-Arrestin Cell Line. To be noted: β-arrestin-2 recruitment, PathHunter CHO-K1 GLP1R β-Arrestin Cell Line, 90 min at 37° C.; normalized to GLP-1; read-out: GLP-1R β Arrestin EC50. (Activated receptors often draw arrestin, which recruitment assays turn into a signal.)

For assay [2], the target named is T2, GIP receptor (Homo sapiens, UniProt P48546).
T2 sequence (P48546 22-466): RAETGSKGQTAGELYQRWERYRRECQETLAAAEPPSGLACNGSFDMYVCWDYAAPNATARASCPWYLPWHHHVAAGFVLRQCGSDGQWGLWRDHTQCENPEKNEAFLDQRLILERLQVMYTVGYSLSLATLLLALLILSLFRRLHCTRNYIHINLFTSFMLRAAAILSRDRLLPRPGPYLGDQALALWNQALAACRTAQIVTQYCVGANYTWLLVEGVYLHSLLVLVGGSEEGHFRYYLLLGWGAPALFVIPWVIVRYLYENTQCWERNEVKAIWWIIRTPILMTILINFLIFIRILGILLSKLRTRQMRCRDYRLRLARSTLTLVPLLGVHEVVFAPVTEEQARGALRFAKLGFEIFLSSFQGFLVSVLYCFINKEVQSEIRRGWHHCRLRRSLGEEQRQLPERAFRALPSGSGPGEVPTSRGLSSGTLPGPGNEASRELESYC
Put plainly: PathHunter β-arrestin assay, GIP receptor. More on the design: host or cells: PathHunter CHO-K1 GIPR β-Arrestin Cell Line. To be noted: β-arrestin-2 recruitment, PathHunter CHO-K1 GIPR β-Arrestin Cell Line, 90 min at 37° C.; normalized to GIP; read-out: GIPR β Arrestin EC50.

The target in assay [3] is T1, GLP-1 receptor. Put plainly: HitHunter cAMP assay, GLP-1 receptor. To be noted: for EC50: CHO cells stably expressing human GLP-1 receptor, cAMP accumulation, 30 min, read-out: EC50 GLP-1R; for Emax: CHO cells, cAMP, normalized to maximum signal from GLP-1 (high) and DMSO (low), read-out: Emax GLP-1R. (In general: cAMP levels reflect the balance of adenylyl cyclase and phosphodiesterase activity.)

In assay [4] the target is T2, GIP receptor. Put plainly: HitHunter cAMP assay, GIP receptor. To be noted: for EC50: CHO cells stably expressing GIP receptor, cAMP accumulation, 30 min, read-out: EC50 GIP-1R; for Emax: CHO cells, cAMP, normalized to maximum signal from GIP (high) and DMSO (low), read-out: Emax GIP-1R.

*1 amine or outer side, *2 acyl side, *3 side chain or, on linkers, in order; H or OH if unused. Where a SMILES comes first, the peptide text is derived from it. Side-chain parts run from the residue outwards. [ ]: non-standard residue; d: D form. The star is where a group is joined. Isobutyryl(2-(3-CN-5-F-Ph)) = CC(C)(C(=O)*)c1cc(F)cc(C#N)c1; C20 diacid = O=C(O)CCCCCCCCCCCCCCCCCCC(=O)*; γGlu = O=C(O)[C@H](CCC(=O)[*:2])N[*:1]; Gla = N[C@@H](CC(C(=O)O)C(=O)O)C(=O)O; AEEA = NCCOCCOCC(=O)O; Aib = CC(C)(N)C(=O)O; βAla = NCCC(=O)O

T1 sequence (P43220 24-463): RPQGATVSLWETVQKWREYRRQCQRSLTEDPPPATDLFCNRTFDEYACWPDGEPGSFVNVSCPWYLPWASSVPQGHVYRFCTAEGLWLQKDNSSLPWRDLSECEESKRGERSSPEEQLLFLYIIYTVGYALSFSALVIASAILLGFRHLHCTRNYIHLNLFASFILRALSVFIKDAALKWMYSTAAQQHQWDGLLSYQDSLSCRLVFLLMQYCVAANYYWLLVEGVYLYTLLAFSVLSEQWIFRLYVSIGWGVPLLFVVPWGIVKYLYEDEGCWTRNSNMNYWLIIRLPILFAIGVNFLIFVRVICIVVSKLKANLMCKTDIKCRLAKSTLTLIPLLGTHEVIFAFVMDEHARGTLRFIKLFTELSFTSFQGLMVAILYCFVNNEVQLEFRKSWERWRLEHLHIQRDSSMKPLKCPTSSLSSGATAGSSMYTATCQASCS

Usually EC50 stands for the concentration giving half of the maximal effect. A word on the Emax: it is the greatest response seen or fitted, relative to the assay's reference. Turning to `CC[C@H](C)[C@H](NC(=O)[C@H](CO)NC(=O)[C@H](Cc1ccc(O)cc1)NC(=O)[C@H](CC(=O)O)NC(=O)[C@H](CO)NC(=O)[C@@H](NC(=O)[C@H](Cc1ccccc1)NC(=O)[C@@H](NC(=O)CNC(=O)[C@H](CCC(=O)O)NC(=O)CCNC(=O)C1(c2ccccc2)CCC(=O)NC1)[C@@H](C)O)[C@@H](C)O)C(=O)N[C@@H](Cc1ccc(O)cc1)C(=O)N[C@@H](CC(C)C)C(=O)N[C@@H](CC(=O)O)C(=O)N[C@@H](CCCCN)C(=O)N[C@@H](CCC(N)=O)C(=O)N[C@@H](C)C(=O)N[C@@H](C)C(=O)NC(C)(C)C(=O)N[C@@H](CCC(=O)O)C(=O)N[C@@H](Cc1ccccc1)C(=O)N[C@H](C(=O)N[C@@H](CC(N)=O)C(=O)N[C@@H](Cc1c[nH]c2ccccc12)C(=O)N[C@@H](CC(C)C)C(=O)N[C@@H](CC(C)C)C(=O)N[C@@H](C)C(=O)NCC(=O)NCC(=O)N1CCC[C@H]1C(=O)N[C@@H](CO)C(=O)N[C@@H](CO)C(=O)NCC(=O)N[C@@H](C)C(=O)N1CCC[C@H]1C(=O)N1CCC[C@H]1C(=O)N1CCC[C@H]1C(=O)N[C@@H](CO)C(=O)N[C@@H](CCCCNC(=O)COCCOCCNC(=O)COCCOCCNC(=O)CC[C@H](NC(=O)CCCCCCCCCCCCCCCCCCC(=O)O)C(=O)O)C(N)=O)C(C)C` (stereo partly drawn) [Compound 156], the EC50 at GLP-1 receptor [1] was more than 1000 nM; on GIP receptor [2] it was more than 1000 nM; at GLP-1 receptor [3], 1 to 10 nM; at GIP receptor [4] it was 1 to 10 nM. Moreover, the Emax at GLP-1 receptor [3] and on GIP receptor [4] was 95% each time.

For `CC[C@H](C)[C@H](NC(=O)[C@H](CC(C)C)NC(=O)[C@H](Cc1c[nH]c2ccccc12)NC(=O)[C@H](CCC(N)=O)NC(=O)[C@@H](NC(=O)[C@H](Cc1ccccc1)NC(=O)[C@H](C)NC(=O)[C@H](CCCCNC(=O)COCCOCCNC(=O)COCCOCCNC(=O)CC[C@H](NC(=O)CCCCCCCCCCCCCCCCCCC(=O)O)C(=O)O)NC(=O)[C@H](C)NC(=O)[C@H](C)NC(=O)[C@@H](NC(=O)[C@H](CCCCN)NC(=O)[C@H](CC(=O)O)NC(=O)[C@H](CC(C)C)NC(=O)C(C)(C)NC(=O)[C@@H](NC(=O)[C@H](CO)NC(=O)[C@H](Cc1ccc(O)cc1)NC(=O)[C@H](CC(=O)O)NC(=O)[C@H](CO)NC(=O)[C@@H](NC(=O)[C@H](Cc1ccccc1)NC(=O)[C@@H](NC(=O)CNC(=O)[C@H](CCC(=O)O)NC(=O)CCNC(=O)C(C)(C)c1cc(F)cc(C#N)c1)[C@@H](C)O)[C@@H](C)O)[C@@H](C)CC)[C@@H](C)CC)C(C)C)C(=O)N[C@@H](C)C(=O)NCC(=O)NCC(=O)N1CCC[C@H]1C(=O)N[C@@H](CO)C(=O)N[C@@H](CO)C(=O)NCC(=O)N[C@@H](C)C(=O)N1CCC[C@H]1C(=O)N1CCC[C@H]1C(=O)N1CCC[C@H]1C(=O)N[C@@H](CO)C(N)=O` [Compound 183] ({Isobutyryl(2-(3-CN-5-F-Ph))-βAla}-EGTFTSDYSI[Aib]LDKIAAK([AEEA-AEEA-γGlu-C20 diacid])AFVQWLIAGGPSSGAPPPS-NH2), the EC50 at GLP-1 receptor [1] is more than 1000 nM; on GIP receptor [2] it was more than 1000 nM; at GLP-1 receptor [3] it was 0.1 to 1 nM; at GIP receptor [4], 10 to 100 nM. For the same compound, the Emax on GLP-1 receptor [3] came out at 96%; at GIP receptor [4], 95%.

As to `CC[C@H](C)[C@H](NC(=O)[C@H](CO)NC(=O)[C@H](Cc1ccc(O)cc1)NC(=O)[C@H](CC(=O)O)NC(=O)[C@H](CO)NC(=O)[C@@H](NC(=O)[C@H](Cc1ccccc1)NC(=O)[C@@H](NC(=O)CNC(=O)[C@H](CCC(=O)O)NC(=O)CCNC(=O)[C@]1(c2ccccc2)CNC(=O)C1)[C@@H](C)O)[C@@H](C)O)C(=O)N[C@@H](Cc1ccc(O)cc1)C(=O)N[C@@H](CC(C)C)C(=O)N[C@@H](CC(=O)O)C(=O)N[C@@H](CCCCN)C(=O)N[C@@H](CCCCNC(=O)COCCOCCNC(=O)COCCOCCNC(=O)CC[C@H](NC(=O)CCCCCCCCCCCCCCCCCCC(=O)O)C(=O)O)C(=O)N[C@@H](C)C(=O)N[C@@H](C)C(=O)NC(C)(C)C(=O)N[C@@H](CCC(=O)O)C(=O)N[C@@H](Cc1ccccc1)C(=O)N[C@H](C(=O)N[C@@H](CC(N)=O)C(=O)N[C@@H](Cc1c[nH]c2ccccc12)C(=O)N[C@@H](CC(C)C)C(=O)N[C@@H](CC(C)C)C(=O)N[C@@H](C)C(=O)NCC(=O)NCC(=O)N1CCC[C@H]1C(=O)N[C@@H](CO)C(=O)N[C@@H](CO)C(=O)NCC(=O)N[C@@H](C)C(=O)N1CCC[C@H]1C(=O)N1CCC[C@H]1C(=O)N1CCC[C@H]1C(=O)N[C@@H](CO)C(N)=O)C(C)C` (single isomer, unassigned) [Compound 113], the EC50 on GLP-1 receptor [1] was more than 1000 nM; at GIP receptor [2], more than 1000 nM; at GLP-1 receptor [3], 0.1 to 1 nM; at GIP receptor [4], 1 to 10 nM. In addition, the figures for the Emax at GLP-1 receptor [3] and at GIP receptor [4] were 112% and 98%, respectively.

As for `CC[C@H](C)[C@H](NC(=O)[C@H](CC(C)C)NC(=O)[C@H](Cc1c[nH]c2ccccc12)NC(=O)[C@H](CCC(N)=O)NC(=O)[C@@H](NC(=O)[C@H](Cc1ccccc1)NC(=O)[C@H](C)NC(=O)[C@H](CCCCNC(=O)COCCOCCNC(=O)COCCOCCNC(=O)CC[C@H](NC(=O)CCCCCCCCCCCCCCCCCCC(=O)O)C(=O)O)NC(=O)[C@H](CCC(N)=O)NC(=O)[C@H](C)NC(=O)[C@@H](NC(=O)[C@H](CCCCN)NC(=O)[C@H](CC(=O)O)NC(=O)[C@H](CC(C)C)NC(=O)C(C)(C)NC(=O)[C@@H](NC(=O)[C@H](CO)NC(=O)[C@H](Cc1ccc(O)cc1)NC(=O)[C@H](CC(=O)O)NC(=O)[C@H](CO)NC(=O)[C@@H](NC(=O)[C@H](Cc1ccccc1)NC(=O)[C@@H](NC(=O)CNC(=O)[C@@H](CC(=O)O)NC(=O)CCNC(=O)C(C)(C)c1cc(F)cc(C#N)c1)[C@@H](C)O)[C@@H](C)O)[C@@H](C)CC)[C@@H](C)CC)C(C)C)C(=O)N[C@@H](C)C(=O)NCC(=O)NCC(=O)N1CCC[C@H]1C(=O)N[C@@H](CO)C(=O)N[C@@H](CO)C(=O)NCC(=O)N[C@@H](C)C(=O)N1CCC[C@H]1C(=O)N1CCC[C@H]1C(=O)N1CCC[C@H]1C(=O)N[C@@H](CO)C(N)=O` [Compound 127] ({Isobutyryl(2-(3-CN-5-F-Ph))-βAla}-[dD]GTFTSDYSI[Aib]LDKIAQK([AEEA-AEEA-γGlu-C20 diacid])AFVQWLIAGGPSSGAPPPS-NH2), the concentration giving a half-maximal response (EC50) on GLP-1 receptor [1] is more than 1000 nM; at GIP receptor [2], more than 1000 nM; at GLP-1 receptor [3] it was 1 to 10 nM; on GIP receptor [4] it was 100 to 1000 nM. Also, the Emax at GLP-1 receptor [3] amounted to 93%; at GIP receptor [4] it was 82%.

As for `CC[C@H](C)[C@H](NC(=O)[C@H](CC(C)C)NC(=O)[C@H](Cc1c[nH]c2ccccc12)NC(=O)[C@H](CCC(N)=O)NC(=O)[C@@H](NC(=O)[C@H](Cc1ccccc1)NC(=O)[C@H](C)NC(=O)[C@H](CCCCNC(=O)COCCOCCNC(=O)COCCOCCNC(=O)CC[C@H](NC(=O)CCCCCCCCCCCCCCCCCCC(=O)O)C(=O)O)NC(=O)[C@H](CCC(N)=O)NC(=O)[C@H](C)NC(=O)[C@@H](NC(=O)[C@H](CCCCN)NC(=O)[C@H](CC(=O)O)NC(=O)[C@H](CC(C)C)NC(=O)C(C)(C)NC(=O)[C@@H](NC(=O)[C@H](CO)NC(=O)[C@H](Cc1ccc(O)cc1)NC(=O)[C@H](CC(=O)O)NC(=O)[C@H](CO)NC(=O)[C@@H](NC(=O)[C@H](Cc1ccccc1)NC(=O)[C@@H](NC(=O)CNC(=O)[C@H](CC(C(=O)O)C(=O)O)NC(=O)CCNC(=O)C(C)(C)c1cc(F)cc(C#N)c1)[C@@H](C)O)[C@@H](C)O)[C@@H](C)CC)[C@@H](C)CC)C(C)C)C(=O)N[C@@H](C)C(=O)NCC(=O)NCC(=O)N1CCC[C@H]1C(=O)N[C@@H](CO)C(=O)N[C@@H](CO)C(=O)NCC(=O)N[C@@H](C)C(=O)N1CCC[C@H]1C(=O)N1CCC[C@H]1C(=O)N1CCC[C@H]1C(=O)N[C@@H](CO)C(N)=O` [Compound 111] ({Isobutyryl(2-(3-CN-5-F-Ph))-βAla}-[Gla]GTFTSDYSI[Aib]LDKIAQK([AEEA-AEEA-γGlu-C20 diacid])AFVQWLIAGGPSSGAPPPS-NH2), the EC50 at GLP-1 receptor [1] was more than 1000 nM; at GIP receptor [2], more than 1000 nM; at GLP-1 receptor [3], 1 to 10 nM; on GIP receptor [4], 10 to 100 nM. For the same compound, the Emax on GLP-1 receptor [3] was 95%; on GIP receptor [4], 105%.
